From patent US9409905B2, “Antibacterial compounds and methods for use” (PTC THERAPEUTICS, INC., priority 2011, dated 2016)
≈ marks a conversion by molar mass, not a printed value.

Columns and labels:
[1] = system: E. coli 25922; assay: Antibacterial activity, microbroth dilution MIC (Table 1); type: cell-based, Escherichia coli; conditions: Escherichia coli; microbroth dilution; control Gram-negative E. coli 25922 strain; read-out: MIC, 25922
Outline: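 Potency is reported as minimum inhibitory concentration in μg/mL, determined by broth microdilution as the lowest level of compound that stops growth visible to the eye.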

[2] = system: Pseudomonas aeruginosa (P. aeruginosa) 27853; assay: Antibacterial activity, MIC (Table 5); type: cell-based; conditions: P. aeruginosa 27853, read-out: MIC, 27853
Outline: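 Values are MICs in μg/mL, read as the lowest concentration at which no growth is visible by eye. They were determined by a microbroth dilution method.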

[3] = system: Staphylococcus aureus (S. aureus) 29213; assay: Antibacterial activity, microbroth dilution MIC (Table 1); type: cell-based; conditions: microbroth dilution, Gram-positive S. aureus 29213, read-out: MIC, 29213
Outline: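 MIC (μg/mL) is taken as the lowest concentration with no macroscopically visible growth. Strains tested by microbroth dilution: Gram-positive S. aureus 29213, control Gram-negative E. coli 25922, and super-sensitive E. coli BAS849.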

[4] = system: Escherichia coli (E. coli) BAS849; assay: as above; type: cell-based; conditions: microbroth dilution, super sensitive Gram-negative E. coli BAS849, read-out: MIC, BAS849
Outline: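 Growth inhibition by microbroth dilution. MIC = lowest μg/mL with no visible growth. Strain 25922 is the control Gram-negative; BAS849 is hypersensitive.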

[5] = system: A. baumannii MXX2240; assay: Antibacterial activity, MIC, resistant strain (Table 4); type: cell-based; conditions: Acinetobacter baumannii, MXX2240; resistant A. baumannii MMX2240, multi-drug resistant clinical isolate; read-out: MIC, MMX2240
Outline: (§1)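 Values are MICs in μg/mL, read as the lowest compound concentration at which no growth is visible by eye. They come from a microbroth dilution method.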

[6] = system: K. pneumoniae MXX1232; assay: as above; type: cell-based; conditions: Klebsiella pneumoniae, MXX1232; resistant K. pneumoniae MMX1232, multi-drug resistant clinical isolate; read-out: MIC, MMX1232
Outline: as §1

[7] = system: Klebsiella pneumoniae (K. pneumoniae) 35657; assay: Antibacterial activity, MIC (Table 4); type: cell-based; conditions: K. pneumoniae 35657, read-out: MIC, 35657
Outline: as §1

[8] = system: Acinetobacter baumannii (A. baumannii) BAA747; assay: Antibacterial activity, MIC (Table 4); type: cell-based; conditions: A. baumannii BAA747, read-out: MIC, BAA747
Outline: as §1

[9] = system: E. coli LZ3111; assay: Antibacterial activity, MIC, quinolone resistant strain (Table 2); type: cell-based; conditions: Escherichia coli, LZ3111, read-out: MIC LZ3111
Outline: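 MIC values (μg/mL) came from a microbroth dilution assay, scored as the lowest drug concentration at which no growth was visible by eye.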

Structure (SMILES) | MIC [1] [µg/mL] | MIC [2] [µg/mL] | MIC [3] [µg/mL] | MIC [4] [µg/mL] | MIC [5] [µg/mL] | MIC [6] [µg/mL] | MIC [7] [µg/mL] | MIC [8] [µg/mL] | MIC [9] [µg/mL]
CCc1c(-c2ccc3[nH]ccc3c2)[nH]c(=O)c(C(=O)O)c1O [Cpd 425, 5-ethyl-4-hydroxy-6-(1H-indol-5-yl)-2-oxo-1,2-dihydropyridine-3-carboxylic acid] | 1 to 3.5 (≈ 3.35 to 11.7 µM) | 12.5 to 150 (≈ 41.9 to 503 µM) | 3.5 to 12.5 (≈ 11.7 to 41.9 µM) | < 1 | < 1 | 12.5 to 150 (≈ 41.9 to 503 µM) | 1 to 3.5 (≈ 3.35 to 11.7 µM) | 3.5 to 12.5 (≈ 11.7 to 41.9 µM) | 1 to 3.5 (≈ 3.35 to 11.7 µM)
CCc1c(-c2cnc3cc[nH]c3c2)[nH]c(=O)c(C(=O)O)c1O [Cpd 430, 5-ethyl-4-hydroxy-2-oxo-6-(1H-pyrrolo[3,2-b]pyridin-6-yl)-1,2-dihydropyridine-3-carboxylic acid] | 12.5 to 150 (≈ 41.8 to 501 µM) | 12.5 to 150 (≈ 41.8 to 501 µM) | 12.5 to 150 (≈ 41.8 to 501 µM) | 12.5 to 150 (≈ 41.8 to 501 µM) | 12.5 to 150 (≈ 41.8 to 501 µM) | 12.5 to 150 (≈ 41.8 to 501 µM) | 12.5 to 150 (≈ 41.8 to 501 µM) | 12.5 to 150 (≈ 41.8 to 501 µM) | 12.5 to 150 (≈ 41.8 to 501 µM)
CCc1cc(C(=O)O)c(=O)[nH]c1-c1ccc2nncn2c1.Cl [Cpd 50, 6-([1,2,4]triazolo[4,3-a]pyridin-6-yl)-5-ethyl-2-oxo-1,2-dihydropyridine-3-carboxylic acid hydrochloride] | 12.5 to 150 | 12.5 to 150 | 12.5 to 150 | 12.5 to 150 | 12.5 to 150 | 12.5 to 150 | 12.5 to 150 | 12.5 to 150 | 12.5 to 150
CCc1c(-c2cc3ccc(OC)cc3n2C)[nH]c(=O)c(C(=O)O)c1O [Cpd 405, 5-ethyl-4-hydroxy-6-(6-methoxy-1-methyl-1H-indol-2-yl)-2-oxo-1,2-dihydropyridine-3-carboxylic acid] | 12.5 to 150 (≈ 36.5 to 438 µM) | 12.5 to 150 (≈ 36.5 to 438 µM) | 3.5 to 12.5 (≈ 10.2 to 36.5 µM) | 3.5 to 12.5 (≈ 10.2 to 36.5 µM) | 12.5 to 150 (≈ 36.5 to 438 µM) | 12.5 to 150 (≈ 36.5 to 438 µM) | 12.5 to 150 (≈ 36.5 to 438 µM) | 12.5 to 150 (≈ 36.5 to 438 µM) | 12.5 to 150 (≈ 36.5 to 438 µM)
CCc1cc(C(=O)O)c(=O)[nH]c1-c1ccc2c(ccn2C)c1OCc1ccccc1 [Cpd 372, 6-(4-(benzyloxy)-1-methyl-1H-indol-5-yl)-5-ethyl-2-oxo-1,2-dihydropyridine-3-carboxylic acid] | 12.5 to 150 (≈ 31.1 to 373 µM) | 12.5 to 150 (≈ 31.1 to 373 µM) | 12.5 to 150 (≈ 31.1 to 373 µM) | 12.5 to 150 (≈ 31.1 to 373 µM) | 12.5 to 150 (≈ 31.1 to 373 µM) | 12.5 to 150 (≈ 31.1 to 373 µM) | 12.5 to 150 (≈ 31.1 to 373 µM) | 12.5 to 150 (≈ 31.1 to 373 µM) | 12.5 to 150 (≈ 31.1 to 373 µM)
Cc1c(-c2ccc3c(c2)cc2n3CC(N(C)C)C2)[nH]c(=O)c(C(=O)O)c1O.Cl (stereo not drawn) [Cpd 417, 6-(2-(dimethylamino)-2,3-dihydro-1H-pyrrolo[1,2-a]indol-7-yl)-4-hydroxy-5-methyl-2-oxo-1,2-dihydropyridine-3-carboxylic acid hydrochloride] | 12.5 to 150 | 12.5 to 150 | 12.5 to 150 | 1 to 3.5 | < 1 | 12.5 to 150 | 12.5 to 150 | 3.5 to 12.5 | < 1
CCc1c(-c2ccc3cc[nH]c3n2)[nH]c(=O)c(C(=O)O)c1O [Cpd 433, 5-ethyl-4-hydroxy-2-oxo-6-(1H-pyrrolo[2,3-b]pyridin-6-yl)-1,2-dihydropyridine-3-carboxylic acid] | 12.5 to 150 (≈ 41.8 to 501 µM) | 12.5 to 150 (≈ 41.8 to 501 µM) | 12.5 to 150 (≈ 41.8 to 501 µM) | < 1 | 12.5 to 150 (≈ 41.8 to 501 µM) | 12.5 to 150 (≈ 41.8 to 501 µM) | 3.5 to 12.5 (≈ 11.7 to 41.8 µM) | 3.5 to 12.5 (≈ 11.7 to 41.8 µM) | 12.5 to 150 (≈ 41.8 to 501 µM)
CCc1c(-c2ccc3[nH]c(-c4ccc(C(F)(F)F)cc4)cc3c2)[nH]c(=O)c(C(=O)O)c1O [Cpd 455, 5-ethyl-4-hydroxy-2-oxo-6-(2-(4-(trifluoromethyl)phenyl)-1H-indol-5-yl)-1,2-dihydropyridine-3-carboxylic acid] | 12.5 to 150 (≈ 28.3 to 339 µM) | 12.5 to 150 (≈ 28.3 to 339 µM) | 3.5 to 12.5 (≈ 7.91 to 28.3 µM) | < 1 | 12.5 to 150 (≈ 28.3 to 339 µM) | 12.5 to 150 (≈ 28.3 to 339 µM) | 12.5 to 150 (≈ 28.3 to 339 µM) | 12.5 to 150 (≈ 28.3 to 339 µM) | 12.5 to 150 (≈ 28.3 to 339 µM)
CCc1c(-c2cc3cc(F)ccc3n2C)[nH]c(=O)c(C(=O)O)c1O [Cpd 406, 5-ethyl-6-(5-fluoro-1-methyl-1H-indol-2-yl)-4-hydroxy-2-oxo-1,2-dihydropyridine-3-carboxylic acid] | 12.5 to 150 (≈ 37.8 to 454 µM) | 12.5 to 150 (≈ 37.8 to 454 µM) | 3.5 to 12.5 (≈ 10.6 to 37.8 µM) | 1 to 3.5 (≈ 3.03 to 10.6 µM) | 12.5 to 150 (≈ 37.8 to 454 µM) | 12.5 to 150 (≈ 37.8 to 454 µM) | 12.5 to 150 (≈ 37.8 to 454 µM) | 12.5 to 150 (≈ 37.8 to 454 µM) | 12.5 to 150 (≈ 37.8 to 454 µM)
